Measurements from patent US11998610B2, “Conjugates and methods of using the same” (Flagship Pioneering Innovations V, Inc., priority 2018, dated 2024).

Key:
[1] = tested on: E. coli CFT073 ATCC 700928 and/or E. coli Nissle 1917; test: Cell-based assay with ClbP with LCMS, ClbP positive strain; conditions: ClbP-encoding E. coli, 10 μM compound, 37° C., 20 h
Method: (§1) This example is representative of the methods described in Example 97. ClbP was tested for its ability to activate compounds. […] Each of these three strains was struck out onto an appropriate solid media such as LB agar or BHI agar. The bacteria were then grown aerobically overnight at 37° C.
(§2) A single colony was isolated from the plate and inoculated into 10 mL LB. The liquid cultures were grown overnight aerobically at 37° C. with rocking on a nutator.
(§3) The saturated E. coli cultures were transferred into a biosafety cabinet. 5 μL of each culture was inoculated into fresh LB broth (200 μL total, 1:40 (v/v) dilution of the overnight culture), and the tested compound was added to a final concentration of 10 μM. To establish the native stability of the compound in media alone, the compound was also added to uninoculated media at a final concentration of 10 μM. Each compound was tested in duplicate with each strain or the media-alone incubation. The plate was sealed and incubated aerobically on a nutator at 37° C. for 20 h.
(§4) After 20 h, the reactions were stopped by addition of 200 μL acetonitrile. The contents of each well were mixed, and then the plate was centrifuged (4,000 rpm, 10 min). The plate was diluted serially to a final dilution of 1:100 first with Acetonitrile (10× dilution) and then with (4:1) Mobile Phase A-20 mM ammonium formate+water:Mobile Phase B-Isopropanol:Methanol:Water (4:4:2)+20 mM ammonium formate (10× dilution).
(§5) The amount of each remaining parent compound in each incubation was quantified by LC-MS analysis, with multiple-reaction monitoring targeting transitions specific to each parent compound.
(§6) The amount of compound present in the media-alone condition was normalized to 100%. The amount of parent compound present in the reaction with the ClbP-encoding E. coli (E. coli CFT073 ATCC 700928 and/or E. coli Nissle 1917) was compared to the amount present in the media-alone and expressed as a percent. Likewise, the amount of parent compound present in the reaction with the negative control E. coli BL21(DE3) was compared to the amount present in the media-alone and expressed as a percent.
(§7) In an ideal case, the amount of residual starting material in the reaction(s) with ClbP-encoding E. coli was <25% of the amount in the E. coli BL21(DE3) and media-alone conditions. In an acceptable case, the amount of residual starting material in the reaction(s) with ClbP-encoding E. coli was 25-75% of the amount in the E. coli BL21(DE3) and media-alone conditions. In a non-preferred case, the amount of residual starting material in the reaction(s) with ClbP-encoding E. coli was >75% of the amount in the E. coli BL21(DE3) and media-alone conditions.

[2] = In vitro Colonic Material Stability Assay; assay type: in vitro ADME; conditions: colonic material slurry, anaerobic, 1 or 10 μM, 24 h
Method: Assay 3 In vitro Colonic Material Stability Assay. This assay was used to assess the stability of an acylated active agent in a large intestine. All experiments were performed in an anaerobic chamber containing 90% nitrogen, 5% hydrogen and 5% carbon dioxide. Colonic material was resuspended as a slurry (15% w/v final concentration) in pre-reduced, anaerobically sterilized dilution blanks (Anaerobe Systems AS-908). The colonic material was then inoculated into 96 well plates containing YCFAC media (Anaerobe Systems AS-680) or other suitable media (6.7 μL slurry into 1 mL total media). Compounds or groups of compounds were added to each individual well to reach a final analyte concentration of 1 or 10 μM, and the material was mixed by pipetting. Sample was removed after set timepoints (0, 120, 240, 480, 1440, 2880 minutes after initiation of the assay), quenched with acetonitrile containing internal standard, and analyzed by LC/MS.

E. coli BL21(DE3) = test: Cell-based assay with ClbP with LCMS, ClbP negative strain; conditions: 10 μM compound, 37° C., 20 h
Method: as §1, §2, §3, §4, §5, §6, §7

Row | SMILES | % Remaining in ClbP Positve Relative to Media-Only [1] | Assay 3 (% Remaining at 24 h) [2] | % Remaining in ClbP Negative Relative to Media-Only (E. coli BL21(DE3))
1 | CCCCCCOC(=O)N[C@H](CC(N)=O)C(=O)N[C@@H](C)C(=O)OC [Example 52, Methyl ((hexyloxy)carbonyl)-D-asparaginyl-L-alaninate] | ++ (<25% compound remaining in the 20 μM WT ClbP reaction relative to the control) | B (25-75% of the tested compound remaining) | ++ (<25% compound remaining in the 20 μM WT ClbP reaction relative to the control)
2 | CCCCCCCC(=O)N[C@H](CC(N)=O)C(=O)N[C@@H](C)CNC(=O)OC [Example 45, Methyl ((S)-2-((R)-4-amino-2-octanamido-4-oxobutanamido)propyl)carbamate] | + (between 25-75% compound remaining in the 20 μM WT ClbP reaction relative to the no-enzyme control) | B (25-75% of the tested compound remaining) | − (>75% compound remaining in the 20 μM WT ClbP reaction relative to the no-enzyme control)
3 | CCCCCCCC(=O)N[C@H](CC(N)=O)C(=O)N[C@@H](C)CCC(=O)OC [Example 42, Methyl (S)-4-((R)-4-amino-2-octanamido-4-oxobutanamido)pentanoate] | − (>75% compound remaining in the 20 μM WT ClbP reaction relative to the no-enzyme control) | C (>75% of the tested compound remaining) | − (>75% compound remaining in the 20 μM WT ClbP reaction relative to the no-enzyme control)
4 | CCCCCCCCCCCCOC(=O)N[C@H](CC(N)=O)C(=O)N[C@@H](C)C(=O)OC [Example 59, Methyl ((dodecyloxy)carbonyl)-D-asparaginyl-L-alaninate] | ++ (<25% compound remaining in the 20 μM WT ClbP reaction relative to the control) | C (>75% of the tested compound remaining) | ++ (<25% compound remaining in the 20 μM WT ClbP reaction relative to the control)
5 | CCCCCCCCCCCCNC(=O)N[C@H](CC(N)=O)C(=O)N[C@@H](C)C(=O)OC [Example 60, Methyl (dodecylcarbamoyl)-D-asparaginyl-L-alaninate] | + (between 25-75% compound remaining in the 20 μM WT ClbP reaction relative to the no-enzyme control) | C (>75% of the tested compound remaining) | + (between 25-75% compound remaining in the 20 μM WT ClbP reaction relative to the no-enzyme control)
6 | COC(=O)[C@H](C)NC(=O)[C@@H](CC(N)=O)NC(=O)c1cn(C2CC2)c2cc(N3CCNCC3)c(F)cc2c1=O [Example 19, Methyl (1-cyclopropyl-6-fluoro-4-oxo-7-(piperazin-1-yl)-1,4-dihydroquinoline-3-carbonyl)-D-asparaginyl-L-alaninate] | + (between 25-75% compound remaining in the 20 μM WT ClbP reaction relative to the no-enzyme control) | A (<25% of the tested compound remaining) | − (>75% compound remaining in the 20 μM WT ClbP reaction relative to the no-enzyme control)
